Results: BigSolDB 2.1

O=S(=O)([O-])NC1CCCCC1.[Na+]
Conditions	solubility (mole fraction)
in DMF, 283.15 K	3.1e-05
in DMF, 288.14 K	0.000121
in DMF, 293.17 K	0.000214
in DMF, 298.15 K	0.000364
in DMF, 303.13 K	0.00051
in DMF, 308.15 K	0.000724
in DMF, 313.14 K	0.00095
in DMF, 318.13 K	0.00119
in DMF, 323.17 K	0.00141
in DMSO, 293.13 K	0.000997
in DMSO, 298.15 K	0.00226
in DMSO, 303.14 K	0.00433
in DMSO, 308.15 K	0.00792
in DMSO, 313.16 K	0.0117
in DMSO, 318.15 K	0.0154
in DMSO, 323.2 K	0.0183
in DMSO, 328.15 K	0.0198
in DMSO, 333.17 K	0.0203
in acetic acid, 293.15 K	0.0037
in acetic acid, 298.14 K	0.00501
in acetic acid, 303.15 K	0.00649
in acetic acid, 308.17 K	0.00753
in acetic acid, 313.15 K	0.00877
in acetic acid, 318.13 K	0.0103
in acetic acid, 323.15 K	0.0115
in acetic acid, 328.17 K	0.0128
in acetic acid, 333.2 K	0.0134
in formamide, 283.13 K	0.0319
in formamide, 288.15 K	0.0391
in formamide, 293.16 K	0.0438
in formamide, 298.17 K	0.0472
in formamide, 303.15 K	0.0506
in formamide, 308.14 K	0.0526
in formamide, 313.15 K	0.0543
in formamide, 318.12 K	0.0554
in formamide, 323.15 K	0.0567
in formic acid, 283.13 K	0.016
in formic acid, 288.13 K	0.0179
in formic acid, 293.1 K	0.0209
in formic acid, 299.12 K	0.0239
in formic acid, 303.15 K	0.0275
in formic acid, 308.17 K	0.0319
in formic acid, 313.13 K	0.037
in formic acid, 318.2 K	0.0424
in formic acid, 323.15 K	0.0487
in methanol, 283.1 K	0.00271
in methanol, 288.15 K	0.00295
in methanol, 293.24 K	0.00314
in methanol, 298.1 K	0.00331
in methanol, 303.15 K	0.00352
in methanol, 308.2 K	0.00376
in methanol, 313.19 K	0.00405
in methanol, 318.2 K	0.00436
in methanol, 323.15 K	0.00467
in water, 283.13 K	0.0152
in water, 288.17 K	0.0166
in water, 293.15 K	0.018
in water, 298.14 K	0.02
in water, 303.17 K	0.0233
in water, 308.13 K	0.0284
in water, 313.15 K	0.0363
in water, 318.14 K	0.0461
in water, 323.15 K	0.0512
